Assay results published in paper PMC4086741 (Molecular Pharmaceutics, 2014).

Columns and labels:
ABCG2 = target: T1, ABCG2 (Homo sapiens, UniProt Q9UNQ0); experiment: Mitoxantrone transport; conditions: ABCG2-overexpressing MCF7-FLV1000 cells, probe mitoxantrone (5 μM)
T1 sequence (Q9UNQ0 1-655): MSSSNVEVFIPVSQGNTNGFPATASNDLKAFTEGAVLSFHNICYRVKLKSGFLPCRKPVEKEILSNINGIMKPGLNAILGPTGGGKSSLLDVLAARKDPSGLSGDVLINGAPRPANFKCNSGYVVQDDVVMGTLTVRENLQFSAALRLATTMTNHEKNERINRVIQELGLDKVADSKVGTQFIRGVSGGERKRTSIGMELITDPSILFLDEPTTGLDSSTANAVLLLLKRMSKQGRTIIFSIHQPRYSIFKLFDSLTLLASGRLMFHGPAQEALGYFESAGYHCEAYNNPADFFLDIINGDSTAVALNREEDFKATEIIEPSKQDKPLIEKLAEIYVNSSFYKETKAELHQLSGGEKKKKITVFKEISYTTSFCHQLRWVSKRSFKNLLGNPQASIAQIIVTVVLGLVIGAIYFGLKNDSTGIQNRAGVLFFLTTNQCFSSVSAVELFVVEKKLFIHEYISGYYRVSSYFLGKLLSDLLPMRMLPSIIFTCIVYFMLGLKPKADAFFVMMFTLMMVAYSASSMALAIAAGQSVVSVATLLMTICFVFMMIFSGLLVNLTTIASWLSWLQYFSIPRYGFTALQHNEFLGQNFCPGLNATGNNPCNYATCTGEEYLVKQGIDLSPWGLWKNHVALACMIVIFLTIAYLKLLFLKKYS

P-gp = P-gp (Homo sapiens, UniProt P08183); experiment: Calcein-AM transport; conditions: P-gp-overexpressing KB-V1 cells, probe calcein-AM (0.5 μg/mL)
Chain of P-gp (P08183 whole entry): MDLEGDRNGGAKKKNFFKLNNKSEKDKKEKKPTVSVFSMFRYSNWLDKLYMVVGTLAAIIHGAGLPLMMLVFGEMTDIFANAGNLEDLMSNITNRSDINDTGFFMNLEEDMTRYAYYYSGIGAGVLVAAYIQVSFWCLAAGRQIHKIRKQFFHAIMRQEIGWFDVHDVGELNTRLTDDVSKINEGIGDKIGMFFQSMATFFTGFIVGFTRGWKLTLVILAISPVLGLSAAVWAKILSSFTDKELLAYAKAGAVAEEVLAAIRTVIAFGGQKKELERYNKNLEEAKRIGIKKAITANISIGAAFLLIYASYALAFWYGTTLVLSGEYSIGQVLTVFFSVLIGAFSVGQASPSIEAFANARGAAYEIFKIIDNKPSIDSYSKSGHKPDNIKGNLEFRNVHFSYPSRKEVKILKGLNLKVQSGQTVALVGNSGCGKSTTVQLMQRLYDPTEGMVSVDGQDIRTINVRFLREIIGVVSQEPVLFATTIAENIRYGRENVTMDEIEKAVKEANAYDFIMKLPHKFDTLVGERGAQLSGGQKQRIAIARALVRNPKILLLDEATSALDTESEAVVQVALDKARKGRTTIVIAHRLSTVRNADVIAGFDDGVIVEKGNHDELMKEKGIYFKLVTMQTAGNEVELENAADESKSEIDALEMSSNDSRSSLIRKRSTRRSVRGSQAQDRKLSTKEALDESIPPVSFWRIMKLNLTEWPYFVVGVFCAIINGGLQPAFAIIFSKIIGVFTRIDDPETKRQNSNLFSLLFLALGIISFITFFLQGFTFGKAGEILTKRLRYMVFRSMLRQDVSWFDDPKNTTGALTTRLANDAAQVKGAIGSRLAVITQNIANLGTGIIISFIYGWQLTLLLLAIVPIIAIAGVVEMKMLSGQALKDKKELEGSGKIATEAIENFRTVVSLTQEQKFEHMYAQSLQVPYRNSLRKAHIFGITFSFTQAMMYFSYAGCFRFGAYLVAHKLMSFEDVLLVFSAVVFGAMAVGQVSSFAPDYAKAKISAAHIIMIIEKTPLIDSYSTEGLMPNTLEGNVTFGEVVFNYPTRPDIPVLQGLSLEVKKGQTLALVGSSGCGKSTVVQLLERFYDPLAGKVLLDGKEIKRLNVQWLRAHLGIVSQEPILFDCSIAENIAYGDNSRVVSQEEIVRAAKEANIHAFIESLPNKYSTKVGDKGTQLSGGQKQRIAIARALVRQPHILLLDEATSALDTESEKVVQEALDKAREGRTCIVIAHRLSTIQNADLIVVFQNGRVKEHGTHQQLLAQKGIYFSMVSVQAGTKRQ

IC20 (P-gp): 1160 nM
SMILES: Cc1cn(-c2cc(NC(=O)c3ccc(C)c(Nc4nccc(-c5cccnc5)n4)c3)cc(C(F)(F)F)c2)cn1 [nilotinib, Nilotinib]
IC20 (ABCG2): 240 nM
